According to patent US20080207632A1, “PROTEIN KINASE INHIBITORS” (SUPERGEN, INC., priority 2006, published 2008):

Each molecule was assayed against T1, aurora-2 kinase (Homo sapiens, UniProt O14965) (assay: aurora-2 kinase inhibition assay (Kinase-Glo, ATP remaining)). Details: Example 17; 3 μM ATP; read-out: IC50 (drug concentration at which 50% of aurora-2 kinase activity was inhibited).
T1 construct: purchased Upstate, Lake Placid, N.Y; host or cells: sf9 cells
T1 sequence (O14965 1-403): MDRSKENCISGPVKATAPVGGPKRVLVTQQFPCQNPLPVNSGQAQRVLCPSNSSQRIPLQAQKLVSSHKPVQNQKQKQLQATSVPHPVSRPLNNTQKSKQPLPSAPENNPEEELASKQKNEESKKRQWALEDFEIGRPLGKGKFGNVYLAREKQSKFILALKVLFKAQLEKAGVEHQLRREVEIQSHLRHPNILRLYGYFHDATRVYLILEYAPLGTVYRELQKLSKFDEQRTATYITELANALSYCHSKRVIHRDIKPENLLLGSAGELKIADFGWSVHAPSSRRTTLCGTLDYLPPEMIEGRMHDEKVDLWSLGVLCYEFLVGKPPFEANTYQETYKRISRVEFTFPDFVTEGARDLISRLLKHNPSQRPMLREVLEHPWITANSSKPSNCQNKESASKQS
Assay type: biochemical
Experimental: (§1) In this assay kinase activity was determined by quantifying the amount of ATP remaining in solution following a kinase reaction by measuring the light units (LU) produced by luciferase using a luminometer. Percent inhibition was determined for individual compounds by comparing luminometer readings of drug-treated reactions to controls containing no drug (DMSO control) and no Aurora-2 enzyme (ATP control) in the following equation: […]
(§2) In a 50 μl reaction, recombinant aurora-2 kinase produced in sf9 cells (Upstate, Lake Placid, N.Y.) was incubated at 30° C. for two hours with 62.5 μM Kemptide (Calbiochem, San Diego, Calif.), 3 μM ATP (Invitrogen, Carlsbad, Calif.) and kinase reaction buffer (40 mM Tris-HCl, 10 mM MgCl2 and 0.1 μg/μl bovine serum albumin (BSA)). This reaction was carried out in the presence of drug substances, which had been previously diluted to desired concentrations in DMSO. After incubation, 50 μl of Kinase-Glo® (Promega, Inc., Madison, Wis.) solution was added to each reaction mixture and allowed to equilibrate for 10 minutes at room temperature. Kinase-Glo solution contains luciferase enzyme and luciferin, which react with ATP to produce light. Kinase activity is determined by quantifying the amount of ATP remaining in solution following the kinase reaction by measuring the light units (LU) produced by luciferase using a luminometer (Thermo-Electron, Vantaa, Finland).
as §1, with “Briefly,” for “In this assay”
as §2, with “μg/Il” for “μg/μl”
as §1, with “Illustrative compounds 2-3, 2-5, 2-7, 2-4 and 2-9 were evaluated in an aurora-2 kinase inhibition assay. In” for “In”

Row | Structure (SMILES) | IC50 [nM]
1 | CC(=O)NS(=O)(=O)c1ccc(NC(=S)N2CCN(c3ncnc4[nH]c5cc(C(F)(F)F)c(Cl)cc5c34)CC2)cc1 [Compound 1-1, 4-(6-Chloro-7-trifluoromethyl-9H-pyrimido[4,5-b]indol-4-yl)-piperazine-1-carbothioic acid (4-acetylsulfamoyl-phenyl)-amide] | 49
2 | COc1cc2[nH]c3ncnc(N4CCN(C(=S)Nc5ccc(S(=O)(=O)NC(C)=O)cc5)CC4)c3c2cc1OC [Compound 1-2, 4-(6,7-Dimethoxy-9H-pyrimido[4,5-b]indol-4-yl)-piperazine-1-carbothioic acid (4-acetylsulfamoyl-phenyl)-amide] | < 5

Same assay, conditions: Example 20; unit from the table's spanning head; read-out: IC50 A2K

Row | IC50 [nM] | Structure (SMILES)
3 | ≤ 5 | COc1cc2[nH]c3ncnc(N4CCN(C(=S)Nc5ccc(S(=O)(=O)NC(C)=O)cc5)CC4)c3c2cc1OC [Compound 1-2, 4-(6,7-Dimethoxy-9H-pyrimido[4,5-b]indol-4-yl)-piperazine-1-carbothioic acid (4-acetylsulfamoyl-phenyl)-amide]
4 | 74 | CC(=O)NS(=O)(=O)c1ccc(NC(=S)N2CCN(c3ncnc4[nH]c5ccc(Cl)cc5c34)CC2)cc1 [Compound 1-3, 4-(6-chloro-9H-pyrimido[4,5-b]indol-4-yl)-piperazine-1-carbothioic acid (4-acetylsulfamoyl-phenyl)-amide]
5 | 23 | CC(=O)NS(=O)(=O)c1ccc(NC(=S)N2CCN(c3ncnc4[nH]c5cc(F)ccc5c34)CC2)cc1 [Compound 1-4]
6 | 18 | COc1cc2c(cc1O)[nH]c1ncnc(N3CCN(C(=S)Nc4ccc(S(=O)(=O)NC(C)=O)cc4)CC3)c12 [Compound 1-8]
7 | 317 | COc1cc2[nH]c3ncnc(N4CCN(C(=S)Nc5ccc(S(=O)(=O)N6CCOCC6)cc5)CC4)c3c2cc1OC [Compound 1-26]
8 | 2090 | COc1cc2[nH]c3ncnc(N4CCN(C(=S)Nc5ccc(NC(=O)C6CC6)cc5)CC4)c3c2cc1OC [Compound 1-34]
9 | 4970 | COc1cc2[nH]c3ncnc(N4CCN(C(=S)Nc5ccc(NC(C)=O)cc5)CC4)c3c2cc1OC [Compound 1-42]
10 | 586 | COc1cc2[nH]c3ncnc(N4CCN(C(=S)Nc5ccc(S(N)(=O)=O)cc5)CC4)c3c2cc1OC [Compound 1-107]
11 | 743 | COc1cc2[nH]c3ncnc(N4CCN(C(=S)Nc5ccc(S(C)(=O)=O)cc5)CC4)c3c2cc1OC [Compound 1-115]

Same assay, conditions: Example 54, Table 8; 3 μM ATP; read-out: Aurora-2 Inhibition, IC50

Row | Structure (SMILES) | IC50 [nM]
12 | COc1cc2[nH]c3ncnc(N4CCN(C(=S)Nc5ccc(S(=O)(=O)Nc6ccc(F)cc6)cc5)CC4)c3c2cc1OC [Compound 2-3, 4-(6,7-dimethoxy-9H-pyrimido[4,5-b]indol-4-yl)-N-(4-(N-(4-fluorophenyl)sulfamoyl)phenyl)piperazine-1-carbothioamide] | 110
13 | COc1ccc2c(c1)[nH]c1ncnc(N3CCN(C(=S)Nc4ccc(S(=O)(=O)Nc5ccc(F)cc5)cc4)CC3)c12 [Compound 2-5, 4-(7-methoxy-9H-pyrimido[4,5-b]indol-4-yl)-N-(4-(N-(4-fluorophenyl)sulfamoyl)phenyl)piperazine-1-carbothioamide] | 569
14 | Cc1ccc(NS(=O)(=O)c2ccc(NC(=S)N3CCN(c4ncnc5[nH]c6cc(Cl)c(N7CCOCC7)cc6c45)CC3)cc2)cc1 [Compound 2-9, 4-(7-chloro-6-morpholino-9H-pyrimido[4,5-b]indol-4-yl)-N-(4-(N-tolylsulfamoyl)phenyl)piperazine-1-carbothioamide] | 837
